Results reported in US20230227435A1, “SMALL MOLECULE MODULATORS OF IL-17” (LEO PHARMA A/S, priority 2020, published 2023).
pEC50: −log10 of the molar value.

Target: T1, human IL-17AA (Homo sapiens, UniProt Q16552)
T1 construct: host or cells: HEK (human embryonic kidney) cells
T1 sequence (Q16552 24-155) 1: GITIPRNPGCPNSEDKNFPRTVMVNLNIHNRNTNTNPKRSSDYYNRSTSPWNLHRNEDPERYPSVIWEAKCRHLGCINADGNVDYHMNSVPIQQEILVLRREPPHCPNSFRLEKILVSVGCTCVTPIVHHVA
T1 sequence (Q16552 24-155) 2: T1 sequence (Q16552 24-155) 1
Assay: IL-8 release assay in human epithelial keratinocytes adult (HEKa)
Type: cell-based
Settings: HEKa cells; 3 ng/mL HEK-human IL-17AA + 10 ng/mL human TNFalpha; 68-72 hours; IL-8 by HTRF; read-out: Rel EC50 IL-8 release assay
Description: Example 8: IL-8 Release Assay in Human Epithelial Keratinocytes Adult (HEKa)
Keratinocytes were seeded at 3500 cells/well in 384-well ViewPlates (Perkin Elmer) in Epilife medium (Thermo Fisher) containing human keratinocyte growth supplement (HKGS) without hydrocortisone and incubated in a humid incubator at 37° C., 5% CO2, overnight. The following day growth medium was removed and 25 μl fresh Epilife medium was added. 75 nL test compound in100% DMSO was added into each well reserved for test compounds, by the use of acoustic pipetting. The remaining wells received an equal volume of DMSO only, as vehicle control, or terfenadine in DMSO, as a positive control for any cytotoxic compounds. Subsequently, another 25 μL Epilife medium was added to each well. Finally, wells containing test compounds and wells prepared to yield maximum stimulation received 25 μL of 9 ng/mL recombinant, human embryonic kidney cell (HEK)-derived human IL-17AA+30 ng/mL human TNF-alpha, in Epilife medium. Wells prepared to define 100% inhibition of IL-17 effects received 25 μL of 30 ng/mL human TNF-alpha alone, in Epilife medium. Final concentrations were 3 ng/mL HEK-human IL-17AA+10 ng/mL human TNFalpha (maximum stimulation) and 10 ng/mL human TNFalpha alone (100% inhibition, Emax), respectively. Cells were incubated for 68-72 hours in the incubator. IL-8 released from the cells was measured by the use of a commercial homogenous time-resolved fluorescence (HTRF) assay (CisBio). 2 μL cell culture supernatant was transferred to a 384-well Proxiplate. 5 μL HTRF reagent was added and the plates were incubated sealed in the dark for 3-22 hours at room temperature. Time-resolved fluorescence was read at 665 vs 620 nm, with excitation at 320 nm, and IL-8 levels were calculated as percent of controls. Reduction of the amount of secreted IL-8 indicates decreased IL-17 signaling. Concentration response curves were fitted by the use of a four-parameter logistic equation. Relative IC50 and Emax were reported from curves showing acceptable fit (r^2>0.9). Cytotoxicity was measured in the cell-containing Viewplates following addition of 7 μL PrestoBlue (Thermo Fisher) and incubation for 2.5-3 hours at room temperature, by measuring fluorescence at 615 nm (excitation at 535 nm). Fluorescence was directly proportional to the amount of metabolic activity. Reduction of fluorescence signal indicated cytotoxicity.
Compounds of the present invention were tested in the IL-8 release assay in human epithelial keratinocytes.

Row | SMILES | pEC50
1 | Cc1n[nH]c(C)c1-c1ccc(NC(=O)C(c2nnc(-c3ccnn3CC3CC3)[nH]2)C(C2CC2)C2CC2)cc1 (stereo not shown) [Example 45, 3,3-dicyclopropyl-2-[5-[2-(cyclopropylmethyl)pyrazol-3-yl]-4H-1,2,4-triazol-3-yl]-N-[4-(3,5-dimethyl-1H-pyrazol-4-yl)phenyl]propanamide] | 7.66
2 | Cc1n[nH]c(C)c1-c1ccc(NC(=O)C(c2ncc[nH]2)C(C2CC2)C2CC2)cc1 (stereo not shown) [Example 6, 3,3-dicyclopropyl-N-[4-(3,5-dimethyl-1H-pyrazol-4-yl)phenyl]-2-(1H-imidazol-2-yl)propanamide] | 5.89
3 | Cc1n[nH]c(C)c1-c1ccc(NC(=O)C(c2nnc(-c3cnn(C)c3C)[nH]2)C(C2CC2)C2CC2)cc1 (stereo not shown) [Example 38, 3,3-dicyclopropyl-N-[4-(3,5-dimethyl-1H-pyrazol-4-yl)phenyl]-2-[5-(1,5-dimethylpyrazol-4-yl)-4H-1,2,4-triazol-3-yl]propanamide] | 6.44
4 | Cc1n[nH]c(C)c1-c1ccc(NC(=O)C(c2nnc(-c3ccnc(C(F)F)c3)[nH]2)C2CCC(F)(F)CC2)cc1 (stereo not shown) [Example 63, 2-(4,4-difluorocyclohexyl)-2-[5-[2-(difluoromethyl)-4-pyridyl]-4H-1,2,4-triazol-3-yl]-N-[4-(3,5-dimethyl-1H-pyrazol-4-yl)phenyl]acetamide] | 6.70
5 | Cc1nn(C)cc1-c1nnc(C(C(=O)Nc2ccc(-c3c(C)n[nH]c3C)cc2)C(C2CC2)C2CC2)[nH]1 (stereo not shown) [Example 25, 3,3-dicyclopropyl-N-[4-(3,5-dimethyl-1H-pyrazol-4-yl)phenyl]-2-[5-(1,3-dimethylpyrazol-4-yl)-4H-1,2,4-triazol-3-yl]propanamide] | 6.64
6 | Cc1n[nH]c(C)c1-c1ccc(NC(=O)C(c2nnc(-c3ccnn3C(C)C)[nH]2)C(C2CC2)C2CC2)nc1F (stereo not shown) [Example 11, 3,3-dicyclopropyl-N-[5-(3,5-dimethyl-1H-pyrazol-4-yl)-6-fluoro-2-pyridyl]-2-[5-(2-isopropylpyrazol-3-yl)-4H-1,2,4-triazol-3-yl]propanamide] | 7.03
7 | Cc1n[nH]c(C)c1-c1ccc(NC(=O)C(c2nnc(Cc3ccccc3)[nH]2)C(C2CC2)C2CC2)cc1 (stereo not shown) [Example 17, 2-(5-benzyl-4H-1,2,4-triazol-3-yl)-3,3-dicyclopropyl-N-[4-(3,5-dimethyl-1H-pyrazol-4-yl)phenyl]propanamide] | 6.62
8 | Cc1n[nH]c(C)c1-c1ccc(NC(=O)C(c2nnc(Cc3cc[nH]n3)[nH]2)C(C2CC2)C2CC2)cc1 (stereo not shown) [Example 16, 3,3-dicyclopropyl-N-[4-(3,5-dimethyl-1H-pyrazol-4-yl)phenyl]-2-[5-(1H-pyrazol-3-ylmethyl)-4H-1,2,4-triazol-3-yl]propanamide] | 5.82
9 | Cc1n[nH]c(C)c1-c1ccc(NC(=O)C(c2nc(-c3ccccc3)c[nH]2)C(C2CC2)C2CC2)cc1 (stereo not shown) [Example 2, 3,3-dicyclopropyl-N-[4-(3,5-dimethyl-1H-pyrazol-4-yl)phenyl]-2-(4-phenyl-1H-imidazol-2-yl)propanamide] | 6.51
10 | Cc1n[nH]c(C)c1-c1ccc(NC(=O)C(c2nc(-c3ccccc3)c(C)[nH]2)C(C2CC2)C2CC2)cc1 (stereo not shown) [Example 7, 3,3-dicyclopropyl-N-[4-(3,5-dimethyl-1H-pyrazol-4-yl)phenyl]-2-(5-methyl-4-phenyl-1H-imidazol-2-yl)propanamide] | 6.10

Next, values leading:

Row | pEC50 | SMILES
11 | 7.23 | CCn1nccc1-c1nnc(C(C(=O)Nc2ccc(-c3c(C)n[nH]c3C)cc2)C(C2CC2)C2CC2)[nH]1 (stereo not shown) [Example 23, 3,3-dicyclopropyl-N-[4-(3,5-dimethyl-1H-pyrazol-4-yl)phenyl]-2-[5-(2-ethylpyrazol-3-yl)-4H-1,2,4-triazol-3-yl]propanamide]
12 | 6.77 | Cc1nonc1-c1nnc(C(C(=O)Nc2ccc(-c3c(C)n[nH]c3C)cc2)C(C2CC2)C2CC2)[nH]1 (stereo not shown) [Example 13, 3,3-dicyclopropyl-N-[4-(3,5-dimethyl-1H-pyrazol-4-yl)phenyl]-2-[5-(4-methyl-1,2,5-oxadiazol-3-yl)-4H-1,2,4-triazol-3-yl]propanamide]
13 | 6.49 | COc1ccncc1-c1nnc(C(C(=O)Nc2ccc(-c3c(C)n[nH]c3C)cc2)C(C2CC2)C2CC2)[nH]1 (stereo not shown) [Example 56, 3,3-dicyclopropyl-N-[4-(3,5-dimethyl-1H-pyrazol-4-yl)phenyl]-2-[5-(4-methoxy-3-pyridyl)-4H-1,2,4-triazol-3-yl]propanamide]
14 | 7.00 | CCOc1cc(-c2nnc(C(C(=O)Nc3ccc(-c4c(C)n[nH]c4C)cc3)C(C3CC3)C3CC3)[nH]2)ccn1 (stereo not shown) [Example 51, 3,3-dicyclopropyl-N-[4-(3,5-dimethyl-1H-pyrazol-4-yl)phenyl]-2-[5-(2-ethoxy-4-pyridyl)-4H-1,2,4-triazol-3-yl]propanamide]
15 | 7.08 | Cc1cc(-c2nnc(C(C(=O)Nc3ccc(-c4c(C)n[nH]c4C)cc3)C(C3CC3)C3CC3)[nH]2)n(C)n1 (stereo not shown) [Example 47, 3,3-dicyclopropyl-N-[4-(3,5-dimethyl-1H-pyrazol-4-yl)phenyl]-2-[5-(2,5-dimethylpyrazol-3-yl)-4H-1,2,4-triazol-3-yl]propanamide]
16 | 6.33 | Cc1nocc1-c1nnc(C(C(=O)Nc2ccc(-c3c(C)n[nH]c3C)cc2)C(C2CC2)C2CC2)[nH]1 (stereo not shown) [Example 42, 3,3-dicyclopropyl-N-[4-(3,5-dimethyl-1H-pyrazol-4-yl)phenyl]-2-[5-(3-methylisoxazol-4-yl)-4H-1,2,4-triazol-3-yl]propanamide]
17 | 6.51 | Cc1n[nH]c(C)c1-c1ccc(NC(=O)C(c2nnc(-c3ccccn3)[nH]2)C(C2CC2)C2CC2)cc1 (stereo not shown) [Example 58, 3,3-dicyclopropyl-N-[4-(3,5-dimethyl-1H-pyrazol-4-yl)phenyl]-2-[5-(2-pyridyl)-4H-1,2,4-triazol-3-yl]propanamide]
18 | 6.00 | Cc1n[nH]c(C)c1-c1ccc(NC(=O)C(c2nnc(-c3cnn(C)c3)[nH]2)C(C2CC2)C2CC2)cc1 (stereo not shown) [Example 20, 3,3-dicyclopropyl-N-[4-(3,5-dimethyl-1H-pyrazol-4-yl)phenyl]-2-[5-(1-methylpyrazol-4-yl)-4H-1,2,4-triazol-3-yl]propanamide]
19 | 6.16 | Cc1n[nH]c(C)c1-c1ccc(NC(=O)C(c2nnc(-c3ccn[nH]3)[nH]2)C(C2CC2)C2CC2)cc1 (stereo not shown) [Example 24, 3,3-dicyclopropyl-N-[4-(3,5-dimethyl-1H-pyrazol-4-yl)phenyl]-2-[5-(1H-pyrazol-5-yl)-4H-1,2,4-triazol-3-yl]propanamide]
20 | 6.70 | Cc1n[nH]c(C)c1-c1ccc(NC(=O)C(c2nnc(-c3ccnn3C)[nH]2)C(C2CC2)C2CC2)cc1 (stereo not shown) [Example 21, 3,3-dicyclopropyl-N-[4-(3,5-dimethyl-1H-pyrazol-4-yl)phenyl]-2-[5-(2-methylpyrazol-3-yl)-4H-1,2,4-triazol-3-yl]propanamide]
21 | 6.51 | Cc1n[nH]c(C)c1-c1ccc(NC(=O)C(c2nnc(-c3ccccc3Cl)[nH]2)C(C2CC2)C2CC2)cc1 (stereo not shown) [Example 18, 2-[5-(2-chlorophenyl)-4H-1,2,4-triazol-3-yl]-3,3-dicyclopropyl-N-[4-(3,5-dimethyl-1H-pyrazol-4-yl)phenyl]propanamide]
22 | 6.96 | Cc1cncc(-c2nnc(C(C(=O)Nc3ccc(-c4c(C)n[nH]c4C)cc3)C(C3CC3)C3CC3)[nH]2)c1 (stereo not shown) [Example 50, 3,3-dicyclopropyl-N-[4-(3,5-dimethyl-1H-pyrazol-4-yl)phenyl]-2-[5-(5-methyl-3-pyridyl)-4H-1,2,4-triazol-3-yl]propanamide]
23 | 6.36 | Cc1ccc(-c2nnc(C(C(=O)Nc3ccc(-c4c(C)n[nH]c4C)cc3)C(C3CC3)C3CC3)[nH]2)cn1 (stereo not shown) [Example 36, 3,3-dicyclopropyl-N-[4-(3,5-dimethyl-1H-pyrazol-4-yl)phenyl]-2-[5-(6-methyl-3-pyridyl)-4H-1,2,4-triazol-3-yl]propanamide]
24 | 7.14 | Cc1ccncc1-c1nnc(C(C(=O)Nc2ccc(-c3c(C)n[nH]c3C)cc2)C(C2CC2)C2CC2)[nH]1 (stereo not shown) [Example 53, 3,3-dicyclopropyl-N-[4-(3,5-dimethyl-1H-pyrazol-4-yl)phenyl]-2-[5-(4-methyl-3-pyridyl)-4H-1,2,4-triazol-3-yl]propanamide]
25 | 6.31 | COc1cc(-c2cnc(C(C(=O)Nc3ccc(-c4c(C)n[nH]c4C)cc3)C(C3CC3)C3CC3)[nH]2)ccn1 (stereo not shown) [Example 69, 3,3-dicyclopropyl-N-[4-(3,5-dimethyl-1H-pyrazol-4-yl)phenyl]-2-[5-(2-methoxy-4-pyridyl)-1H-imidazol-2-yl]propanamide]
